Columns and labels:
physchem [1] = conditions: PBS, pH 7.4
in vitro = conditions: human
physchem [2] = conditions: DMEM buffer, pH 7.4

Which logD (physchem [1]) does the source give for O=C1CCN(c2ccccc2)C(=O)N1 here?
Its logD is 0.3.

For O=C1CCC(c2ccccc2)C(=O)N1 (stereo not drawn), which logD (physchem [1]) is on record?
The logD was 0.6.

And the half-life at 24 h (in vitro; MV4-11 cells)?
The half-life at 24 h was over 24 h.

With O=C1CCC(c2cccc3cc[nH]c23)C(=O)N1 (stereo not drawn) as the compound, how does the logD (physchem [1]) read?
The logD was 1.4.

With O=C1CCC(c2ccc3[nH]ncc3c2)C(=O)N1 (stereo not drawn) as the compound, how does the logD (physchem [1]) read?
The logD was 0.3.

For O=C1CCC(c2ccnc3[nH]ncc23)C(=O)N1 (stereo not drawn), which logD (physchem [1]) is on record?
The logD was -0.3.

For Nc1cccc2c1CN(C1CCC(=O)NC1=O)C2=O (stereo not drawn) [LENALIDOMIDE], which half-life at 24 h (in vitro; MV4-11 cells) is on record?
The half-life at 24 h was 12 h.

And the half-life at 48 h (physchem [2])?
Its half-life at 48 h is 0.9 h.

Which logD (physchem [1]) does the source give for Nc1cccc2c1C(=O)N(C1CCC(=O)NC1=O)C2=O (stereo not drawn) [POMALIDOMIDE] here?
The logD was 1.3.

And the half-life at 24 h (in vitro; mv4-11)?
The half-life at 24 h was 12 h.

What about the half-life at 48 h (physchem [2]) of the same compound?
The half-life at 48 h was 0.4 h.

With O=C1CCC(N2C(=O)c3ccccc3C2=O)C(=O)N1 (stereo not drawn) [THALIDOMIDE] as the compound, how does the logD (physchem [1]) read?
The logD was 0.7.

What about the half-life at 24 h (in vitro; MV4-11 cells) of the same compound?
Its half-life at 24 h is 3.3 h.

— ChEMBL document CHEMBL6074698, “Heteroaryl Glutarimides and Dihydrouracils as Cereblon Ligand Scaffolds for Molecular Glue Degrader Discovery” (ACS Med Chem Lett, 2024)
